In patent US20250333421A1, “PYRIDAZINES OR 1,2,4-TRIAZINES SUBSTITUTED BY SPIROCYCLIC AMINES” (Janssen Pharmaceutica NV, priority 2021, published 2025):

Experiments:
MOLM14 cells = experiment: Proliferation assay (spheroid assay) in MOLM14; assay type: cell-based; conditions: Homo sapiens, MOLM-14, 192 h; MOLM14 (MLL-AF9), 8 days, confluence as measure of spheroid size; read-out: spheroid assay_OneTime MOLM14 IC50
Description: (§1) The anti-proliferative effect of menin/MLL protein/protein interaction inhibitor test compounds was assessed in human leukemia cell lines. The cell line MOLM14 harbors a MLL translocation and expresses the MLL fusion proteins MLL-AF9, respectively, as well as the wildtype protein from the second allele. […] KO-52 was used as a control cell line containing two MLL (KMT2A) wildtype alleles in order to exclude compounds that display general cytotoxic effects.
MOLM14 cells were cultured in RPMI-1640 (Sigma Aldrich) supplemented with 10% heat-inactivated fetal bovine serum (HyClone), 2 mM L-glutamine (Sigma Aldrich) and 50 µg/ml gentamycin (Gibco). KO-52 cell lines were propagated in alpha-MEM (Sigma Aldrich) supplemented with 20% heat-inactivated fetal bovine serum (HyClone), 2 mM L-glutamine (Sigma Aldrich) and 50 µg/ml gentamycin (Gibco).
In order to assess the anti-proliferative effects, 200 MOLM14 cells, or 300 KO-52 cells were seeded in 200 μl media per well in 96-well round bottom, ultra-low attachment plates (Costar, catalogue number 7007). Cell seeding numbers were chosen based on growth curves to ensure linear growth throughout the experiment. Test compounds were added at different concentrations and the DMSO content was normalized to 0.3%. Cells were incubated for 8 days at 37° C. and 5% CO2. Spheroid like growth was measured in real-time by live-cell imaging (IncuCyteZOOM, Essenbio, 4× objective) acquiring images at day 8. Confluence (%) as a measure of spheroid size was determined using an integrated analysis tool.
In order to determine the effect of the test compounds over time, the confluence in each well as a measure of spheroid size, was calculated. Confluence of the highest dose of a reference compound was used as baseline for the LC (Low control) and the confluence of DMSO treated cells was used as 0% cytotoxicity (High Control, HC).
Absolute IC50 values were calculated as percent change in confluence as follows:
LC=Low Control: cells treated with e.g. 1 μM of the cytotoxic agent staurosporin, or e.g. cells treated with a high concentration of an alternative reference compound
GraphPad Prism (version 7.00) was used to calculate the IC50. Dose-response equation was used for the plot of % Effect vs Log10 compound concentration with a variable slope and fixing the maximum to 100% and the minimum to 0%.

KO-52 cells = experiment: Proliferation assay (spheroid assay) in KO-52 control cell line; assay type: cell-based; conditions: Homo sapiens, 192 h; KO-52 (MLL wildtype control), 8 days, confluence as measure of spheroid size; read-out: spheroid assay_OneTime KO-52 IC50
Description: as §1
MOLM14 cells were cultured in RPMI-1640 (Sigma Aldrich) supplemented with 10% heat-inactivated fetal bovine serum (HyClone), 2 mM L-glutamine (Sigma Aldrich) and 50 µg/ml gentamycin (Gibco). […]
In order to assess the anti-proliferative effects, 200 MOLM14 cells, or 300 KO-52 cells were seeded in 200 μl media per well in 96-well round bottom, ultra-low attachment plates (Costar, catalogue number 7007). […] Spheroid like growth was measured in real-time by live-cell imaging (IncuCyteZOOM, Essenbio, 4× objective) acquiring images at day 8. Confluence (%) as a measure of spheroid size was determined using an integrated analysis tool.
In order to determine the effect of the test compounds over time, the confluence in each well as a measure of spheroid size, was calculated. […]
Absolute IC50 values were calculated as percent change in confluence as follows: […]

Menin/MLL = target: T1, Menin/MLL (Homo sapiens, UniProt O00255, T541A); experiment: Menin/MLL homogenous time-resolved fluorescence (HTRF) assay; assay type: binding; conditions: 30 min incubation of test compound with terbium chelate-labeled menin; FITC-MBM1 peptide
T1 construct: Menin (a.a 1-610-6xhis tag)
T1 sequence (O00255 with tags, fused parts or gaps T541A): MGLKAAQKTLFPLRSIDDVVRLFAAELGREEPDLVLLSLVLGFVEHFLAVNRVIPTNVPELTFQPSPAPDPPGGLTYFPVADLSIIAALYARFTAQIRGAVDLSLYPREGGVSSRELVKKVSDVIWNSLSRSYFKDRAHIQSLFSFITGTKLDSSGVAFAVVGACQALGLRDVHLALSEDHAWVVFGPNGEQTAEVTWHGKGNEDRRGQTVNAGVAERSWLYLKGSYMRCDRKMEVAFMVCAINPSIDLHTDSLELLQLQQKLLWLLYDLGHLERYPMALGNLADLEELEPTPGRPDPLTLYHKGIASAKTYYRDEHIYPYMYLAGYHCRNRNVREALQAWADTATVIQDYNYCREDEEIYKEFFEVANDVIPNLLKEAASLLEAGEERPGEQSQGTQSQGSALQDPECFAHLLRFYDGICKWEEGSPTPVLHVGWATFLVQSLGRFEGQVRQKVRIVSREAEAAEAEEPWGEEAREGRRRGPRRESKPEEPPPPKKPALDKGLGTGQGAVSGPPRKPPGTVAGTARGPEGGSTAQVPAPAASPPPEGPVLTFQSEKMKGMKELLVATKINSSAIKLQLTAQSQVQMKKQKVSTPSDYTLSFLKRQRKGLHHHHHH
Description: 1) Menin/MLL homogenous time-resolved fluorescence (HTRF) assay
To an untreated, white 384-well microtiter plate was added 40 nL 200X test compound in DMSO and 4 μL 2X terbium chelate-labeled menin (vide infra for preparation) in assay buffer (40 mM Tris-HCl, pH 7.5, 50 mM NaCl, 1 mM DTT (dithiothreitol) and 0.05% Pluronic F-127). After incubation of test compound and terbium chelate-labeled menin for 30 min at ambient temperature, 4 μL 2X FITC-MBM1 peptide (FITC-β-alanine-SARWRFPARPGT-NH2 (SEQ ID NO: 2)) (“FITC” means fluorescein isothiocyanate) in assay buffer was added, the microtiter plate centrifuged at 1000 rpm for 1 min and the assay mixtures incubated for 15 min at ambient temperature. The relative amount of menin FITC--MBM1 complex present in an assay mixture is determined by measuring the homogenous time-resolved fluorescence (HTRF) of the terbium/FITC donor/acceptor fluorphore pair using an EnVision microplate reader (ex. 337 nm/terbium em. 490 nm/FITC em. 520 nm) at ambient temperature. The degree of fluorescence resonance energy transfer (the HTRF value) is expressed as the ratio of the fluorescence emission intensities of the FITC and terbium fluorophores (F^em 520 nm/F^em 490 nm). The final concentrations of reagents in the binding assay are 200 pM terbium chelate-labeled menin, 75 nM FITC-MBM1 peptide and 0.5% DMSO in assay buffer. Dose-response titrations of test compounds are conducted using an 11 point, four-fold serial dilution scheme, starting typically at 10 μM.
Compound potencies were determined by first calculating % inhibition at each compound concentration according to equation 1: […]
Where LC and HC are the HTRF values of the assay in the presence or absence of a saturating concentration of a compound that competes with FITC-MBM1 for binding to menin, and HTRF^compound is the measured HTRF value in the presence of the test compound. HC and LC HTRF values represent an average of at least 10 replicates per plate.
Where Bottom and Top are the lower and upper asymptotes of the dose-response curve, respectively, IC50 is the concentration of compound that yields 50% inhibition of signal and h is the Hill coefficient. IC50 values below 0.1 nM in the HTRF assay were reported as 0.1 nM in the Table below (detection limit).
Preparation of Terbium cryptate labeling of Menin: Menin (a.a 1-610-6xhis tag, 2.3 mg/mL in 20 mM Hepes (2-[4-(2-Hydroxyethyl)-1-piperazinyl]ethane sulfonic acid), 80 mM NaCl, 5 mM DTT (Dithiothreitol), pH 7.5) was labeled with terbium cryptate as follows. 200 μg of Menin was buffer exchanged into lx Hepes buffer. 6.67 μM Menin was incubated with 8-fold molar excess NHS (N-hydroxysuccinimide)-terbium cryptate for 40 minutes at room temperature. Half of the labeled protein was purified away from free label by running the reaction over a NAP5 column with elution buffer (0.1M Hepes, pH 7+0.1% BSA (bovine serum albumin)). The other half was eluted with 0.1 M phosphate buffered saline (PBS), pH7. 400 μl of eluent was collected for each, aliquoted and frozen at −80° C. The final concentration of terbium-labeled Menin protein was 115 μg/mL in Hepes buffer and 85 μg/mL in PBS buffer, respectively.

SMILES | IC50 (MOLM14 cells) [µM] | IC50 (Menin/MLL) [µM] | IC50 (KO-52 cells) [µM]
CCN(C(=O)c1cc(F)ccc1Oc1nncnc1N1CCC2(C1)CN(C(CCCN(C)CCSC)C(C)C)C2)C(C)C (single isomer, unassigned) [Compound 1] | 0.05 |  | 11.9
CCN(C(=O)c1cc(F)ccc1Oc1nncnc1N1CCC2(C1)CN(C(CCCNCCSC)C(C)C)C2)C(C)C (single isomer, unassigned) [Compound 3] | 0.005 |  | 
CCN(C(=O)c1cc(F)ccc1Oc1nncnc1N1CCC2(C1)CN(C(CCCNCCOC(F)(F)F)C(C)C)C2)C(C)C (single isomer, unassigned) [Compound 4] | 0.021 | 0.000208 | 
CCN(C(=O)c1cc(F)ccc1Oc1nncnc1N1CCC2(C1)CN(C(CCCN(C)CCOCCCCN)C(C)C)C2)C(C)C (single isomer, unassigned) [Compound 6] | 0.1 |  | 
CCN(C(=O)c1cc(F)ccc1Oc1nncnc1N1CCC2(C1)CN(C(CCCNCCOC(F)F)C(C)C)C2)C(C)C (single isomer, unassigned) [Compound 7] | 0.007 | 0.000121 | 
CCN(C(=O)c1cc(F)ccc1Oc1nncnc1N1CCC2(C1)CN(C(CCCN(C)CCOC(F)F)C(C)C)C2)C(C)C (single isomer, unassigned) [Compound 8] | 0.016 | 0.000182 | 
C#CCN(C)CCCC(C(C)C)N1CC2(CCN(c3ncnnc3Oc3ccc(F)cc3C(=O)N(CC)C(C)C)C2)C1 (single isomer, unassigned) [Compound 11] | 0.06 |  | 
C=CCN(C)CCCC(C(C)C)N1CC2(CCN(c3ncnnc3Oc3ccc(F)cc3C(=O)N(CC)C(C)C)C2)C1 (single isomer, unassigned) [Compound 12] | 0.029 |  | 
CCN(C(=O)c1cc(F)ccc1Oc1nncnc1N1CCC2(C1)CN(C(CCCN(C)CCOC)C(C)(C)C)C2)C(C)C (single isomer, unassigned) [Compound 13a] |  | 0.00197 | 
CCN(C(=O)c1cc(F)ccc1Oc1nncnc1N1CCC2(C1)CN(C(CCCN(C)CCOC)C(C)(C)C)C2)C(C)C (single isomer, unassigned) [Compound 13b] | 0.021 |  | 
CCN(C(=O)c1cc(F)ccc1Oc1nncnc1N1CCC2(C1)CN([C@H](CCN(C)CCS(N)(=O)=O)C(C)C)C2)C(C)C (single isomer, unassigned) [Compound 20] | 0.43 | 0.00029 | 
CC(C)N(C(=O)c1cc(F)ccc1Oc1nncnc1N1CCC2(C1)CN(C(CC(O)CN(C)C)C(C)(C)C)C2)C(C)C (single isomer, unassigned) [Compound 22] |  | 0.0182 | 
CC(C)N(C(=O)c1cc(F)ccc1Oc1nncnc1N1CCC2(C1)CN(C(CC(O)CN(C)C)C(C)(C)C)C2)C(C)C (single isomer, unassigned) [Compound 23] |  | 0.00457 | 
CCN(C)C[C@H](O)C[C@@H](N1CC2(CCN(c3ncnnc3Oc3ccc(F)cc3C(=O)N(CC)C(C)C)C2)C1)C(C)(C)C (single isomer, unassigned) [Compound 24] |  | 0.0355 | 
CCN(C)C[C@@H](O)C[C@H](N1CC2(CCN(c3ncnnc3Oc3ccc(F)cc3C(=O)N(CC)C(C)C)C2)C1)C(C)(C)C (single isomer, unassigned) [Compound 25] |  | 0.00646 | 
CCN(C(=O)c1cc(F)cc(Br)c1Oc1nncnc1N1CCC2(C1)CN([C@H](CCCN(C)CCOC)C(C)C)C2)C(C)C [Compound 21] |  | 0.0137 | 

More lines, main results first:

IC50 (MOLM14 cells) [µM] | IC50 (Menin/MLL) [µM] | SMILES | IC50 (KO-52 cells) [µM]
0.22 | 0.00011 | CCN(C(=O)c1cc(F)ccc1Oc1nncnc1N1CCC2(C1)CN(C(CCCN(C)CCOCCN)C(C)C)C2)C(C)C (single isomer, unassigned) [Compound 5] | 
0.19 |  | COCCN(C)CCC[C@H](C(C)C)N1CC2(CCN(c3ncnnc3Oc3ccc(F)cc3C(=O)N(CCN)C(C)C)C2)C1 (single isomer, unassigned) [Compound 9] | 
0.46 |  | COCCN(C)CCC[C@H](C(C)C)N1CC2(CCN(c3ncnnc3Oc3ccc(F)cc3C(=O)N(CCCCN)C(C)C)C2)C1 (single isomer, unassigned) [Compound 10] | 
 | 0.00297 | CCN(CC(C)O)C(=O)c1cc(F)ccc1Oc1nncnc1N1CCC2(C1)CN(C(CCCN(C)CCOC)C(C)C)C2 (single isomer, unassigned) [Compound 16] | 
 | 0.0793 | CCN(CC(C)O)C(=O)c1cc(F)ccc1Oc1nncnc1N1CCC2(C1)CN(C(CCCN(C)CCOC)C(C)C)C2 (single isomer, unassigned) [Compound 17] | 
 | 0.0355 | CCN(C[C@@H](C)O)C(=O)c1cc(F)ccc1Oc1nncnc1N1CCC2(C1)CN([C@H](CCCN(C)CCOC)C(C)C)C2 (single isomer, unassigned) [Compound 18] | 
> 0.94 | 0.00666 | CCN(CC(C)O)C(=O)c1cc(F)ccc1Oc1nncnc1N1CCC2(C1)CN(C(CCCN(C)CCOC)C(C)C)C2 (stereo not drawn) [Compound 14] | 
0.47 | 0.000331 | COCCN(C)CCC[C@H](C(C)C)N1CC2(CCN(c3ncnnc3Oc3ccc(F)cc3C(=O)N(CCNC(C)=O)C(C)C)C2)C1 [Compound 15] | 
0.032 |  | COCCN(C)CCC[C@H](C(C)C)N1CC2(CCN(c3ncnnc3Oc3ccc(F)cc3C(=O)N(CCO)C(C)C)C2)C1 [Compound 19] | 
